According to patent US9169260B2 (MERCK SHARP & DOHME CORP., priority 2011, dated 2015):
pIC50: −log10 of the molar value.

Target: GST tagged IRAK-4 (Homo sapiens (Human), UniProt Q9NWZ3)
Assay: IRAK-4 Kinase Assay (IMAP fluorescence polarization)
Assay type: biochemical
Conditions: 100 μM ATP, 30 minutes at 25° C.; for IC50: μM
Outline: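 Activity was read by IMAP fluorescence polarization, where phosphopeptide binding to M(III) nanoparticles raises FP. The 30-minute, 25° C reaction used 100 μM ATP, 100 nM RP7030 substrate and 0.5 nM GST-IRAK-4 in pH 7.2 Tris buffer with MgCl2, DTT and Tween 20.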

GST tagged IRAK-4, sequence (Q9NWZ3 whole entry): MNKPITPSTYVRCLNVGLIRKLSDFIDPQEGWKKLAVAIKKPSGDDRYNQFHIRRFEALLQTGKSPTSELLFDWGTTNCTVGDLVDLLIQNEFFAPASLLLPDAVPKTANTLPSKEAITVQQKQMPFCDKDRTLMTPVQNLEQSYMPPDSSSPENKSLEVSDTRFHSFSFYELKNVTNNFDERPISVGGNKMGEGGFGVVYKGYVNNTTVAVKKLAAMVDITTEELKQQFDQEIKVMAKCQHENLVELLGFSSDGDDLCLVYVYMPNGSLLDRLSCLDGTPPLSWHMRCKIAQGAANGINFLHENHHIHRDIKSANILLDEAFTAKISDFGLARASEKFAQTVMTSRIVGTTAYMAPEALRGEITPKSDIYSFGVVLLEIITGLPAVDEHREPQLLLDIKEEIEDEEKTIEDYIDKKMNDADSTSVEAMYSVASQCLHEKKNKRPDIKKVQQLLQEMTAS

Row | pIC50 | IC50 [µM] | Structure (SMILES)
1 |  | < 1 | Cc1ccc(-n2nc(C3CCN(S(=O)(=O)c4ccc(F)cc4)CC3)cc2NC(=O)c2cnn3cccnc23)cc1 [Example 366, N-[3-{1[(4-fluorophenyl)sulfonyl]piperidin-4-yl}-1-(4-methylphenyl)-1H-pyrazol-5-yl]pyrazolo[1,5-a]pyrimidine-3-carboxamide]
2 | > 7.00 |  | CCC(C)N1CCC(c2cc(NC(=O)c3cnn4cccnc34)n(-c3ccc(C)cc3)n2)CC1 (stereo not drawn) [Example 209]
3 | > 7.00 |  | Cc1ccc(-n2nc(C3CCC(N)CC3)cc2NC(=O)c2cnn3cccnc23)nc1 (stereo not drawn) [Example 185, N-(3-(4-aminocyclohexyl)-1-(5-methylpyridin-2-yl)-1H-pyrazol-5-yl)pyrazolo[1,5-a]pyrimidine-3-carboxamide]
4 | > 7.00 |  | Cc1ccc(-n2nc(C3CCN(S(C)(=O)=O)CC3)cc2NC(=O)c2cnn3cc(C#N)cnc23)nc1 [Example 191, 6-cyano-N-(1-(5-methylpyridin-2-yl)-3-(1-(methylsulfonyl)piperidin-4-yl)-1H-pyrazol-5-yl)pyrazolo[1,5-a]pyrimidine-3-carboxamide]
5 |  | < 1 | Cc1ccc(-n2nc(C3CCN(S(=O)(=O)CCc4ccccc4)CC3)cc2NC(=O)c2cnn3cccnc23)cc1 [Example 395, N-[1-(4-methylphenyl)-3-{1-[(2-phenylethyl)sulfonyl]piperidin-4-yl}-1H-pyrazol-5-yl]pyrazolo[1,5-a]pyrimidine-3-carboxamide]
6 |  | < 1 | Cc1ccc(-n2nc(C3CCNC(=O)CC3)cc2NC(=O)c2cnn3cccnc23)cc1 (stereo not drawn) [Example 4, N-(3-(7-oxoazepan-4-yl)-1-(p-tolyl)-1H-pyrazol-5-yl)pyrazolo[1,5-a]pyrimidine-3-carboxamide]
7 | > 7.00 |  | Cc1ccc(-n2nc(C3CCN(Cc4ccn[nH]4)CC3)cc2NC(=O)c2cnn3cccnc23)cc1 [Example 230, N-{1-(4-methylphenyl)-3-[1-(1H-pyrazol-5-ylmethyl)piperidin-4-yl]-1H-pyrazol-5-yl}pyrazolo[1,5-a]pyrimidine-3-carboxamide]
8 |  | < 1 | Cc1ccc(-n2nc(C3CCN(S(=O)(=O)c4ccc(F)cc4F)CC3)cc2NC(=O)c2cnn3cccnc23)cc1 [Example 370, N-[3-{1-[(2,4-difluorophenyl)sulfonyl]piperidin-4-yl}-1-(4-methylphenyl)-1H-pyrazol-5-yl]pyrazolo[1,5-a]pyrimidine-3-carboxamide]
9 |  | < 1 | Cc1ccc(-n2nc(C3CCN(C4CN(C(=O)OC(C)C)C4)CC3)cc2NC(=O)c2cnn3cccnc23)cc1 [Example 240, 1-methylethyl 3-(4-{1-(4-methylphenyl)-5-[(pyrazolo[1,5-a]pyrimidin-3-ylcarbonyl)amino]-1H-pyrazol-3-yl}piperidin-1-yl)azetidine-1-carboxylate]
10 |  | > 1 | COc1cccc(S(=O)(=O)N2CCC(c3cc(NC(=O)c4cnn5cccnc45)n(-c4ccc(C)cc4)n3)CC2)c1 [Example 385, N-[3-{1-[(3-methoxyphenyl)sulfonyl]piperidin-4-yl}-1-(4-methylphenyl)-1H-pyrazol-5-yl]pyrazolo[1,5-a]pyrimidine-3-carboxamide]
11 |  | < 1 | Cc1ccc(-n2nc(C3CCCN(Cc4nccs4)C3)cc2NC(=O)c2cnn3cccnc23)cc1 (stereo not drawn) [Example 298, N-{1-(4-methylphenyl)-3-[1-(1,3-thiazol-2-ylmethyl)piperidin-3-yl]-1H-pyrazol-5-yl}pyrazolo[1,5-a]pyrimidine-3-carboxamide]
12 | > 7.00 |  | Cc1ccc(-n2nc(C3CCN(C4CCC(C)C4)CC3)cc2NC(=O)c2cnn3cccnc23)nc1 (stereo not drawn) [Example 272, N-{3-[1-(3-methylcyclopentyl)piperidin-4-yl]-1-(5-methylpyridin-2-yl)-1H-pyrazol-5-yl}pyrazolo[1,5-a]pyrimidine-3-carboxamide]
13 | > 7.00 |  | Cc1ccc(-n2nc(C3CCN(Cc4cscn4)CC3)cc2NC(=O)c2cnn3cccnc23)cc1 [Example 231, N-{1-(4-methylphenyl)-3-[1-(1,3-thiazol-4-ylmethyl)piperidin-4-yl]-1H-pyrazol-5-yl}pyrazolo[1,5-a]pyrimidine-3-carboxamide]
14 |  | < 1 | Cc1ccc(-n2nc(C3CN(Cc4ccncc4)C3)cc2NC(=O)c2cnn3cccnc23)cc1 [Example 309, N-{1-(4-methylphenyl)-3-[1-(pyridin-4-ylmethyl)azetidin-3-yl]-1H-pyrazol-5-yl}pyrazolo[1,5-a]pyrimidine-3-carboxamide]
15 |  | < 1 | COCCS(=O)(=O)N1CC(c2cc(NC(=O)c3cnn4cccnc34)n(-c3ccc(C)cc3)n2)C1 [Example 86, N-(3-(1-((2-methoxyethyl)sulfonyl)azetidin-3-yl)-1-(p-tolyl)-1H-pyrazol-5-yl)pyrazolo[1,5-a]pyrimidine-3-carboxamide]
16 | > 7.00 |  | Cc1ccc(-n2nc(-c3ccc(S(=O)(=O)N(C)C)cc3C)cc2NC(=O)c2cnn3cccnc23)cc1 [Example 345, N-{3-[4-(dimethylsulfamoyl)-2-methylphenyl]-1-(4-methylphenyl)-1H-pyrazol-5-yl}pyrazolo[1,5-a]pyrimidine-3-carboxamide]
17 |  | > 1 | Cc1ccc(-n2nc(C3CCN(S(=O)(=O)c4ccc5ccccc5c4)CC3)cc2NC(=O)c2cnn3cccnc23)cc1 [Example 377, N-{1-(4-methylphenyl)-3-[1-(naphthalen-2-ylsulfonyl)piperidin-4-yl]-1H-pyrazol-5-yl}pyrazolo[1,5-a]pyrimidine-3-carboxamide]
18 |  | < 1 | Cc1ccc(-n2nc(C3CC3)cc2NC(=O)c2cnn3cccnc23)cc1 [Example 130, N-(3-cyclopropyl-1-(p-tolyl)-1H-pyrazol-5-yl)pyrazolo[1,5-a]pyrimidine-3-carboxamide]
19 | > 7.00 |  | O=C(Nc1cc(C2CCNCC2)nn1-c1ccc(C2CC2)cc1)c1cnn2cccnc12 [Example 52, N-(1-(4-cyclopropylphenyl)-3-(piperidin-4-yl)-1H-pyrazol-5-yl)pyrazolo[1,5-a]pyrimidine-3-carboxamide]
20 | > 7.00 |  | CCN1CCC(N2CCC(c3cc(NC(=O)c4cnn5cccnc45)n(-c4ccc(C)cn4)n3)CC2)CC1 [Example 279, N-[3-(1′-ethyl-1,4′-bipiperidin-4-yl)-1-(5-methylpyridin-2-yl)-1H-pyrazol-5-yl]pyrazolo[1,5-a]pyrimidine-3-carboxamide]

Row | Structure (SMILES) | pIC50 | IC50 [µM]
21 | Cc1ccc(-n2nc(C3=CCN(C)CC3)cc2NC(=O)c2cnn3cccnc23)cc1 [Example 140, N-(3-(1-methyl-1,2,3,6-tetrahydropyridin-4-yl)-1-(p-tolyl)-1H-pyrazol-5-yl)pyrazolo[1,5-a]pyrimidine-3-carboxamide] | > 7.00 | 
